Measurements reported in patent US12479847B2 (DANA-FARBER CANCER INSTITUTE, INC., priority 2019, dated 2025).
Read-outs that look alike come from different tables or passages of the source.

Experiments:
Assay in all cases: KINOMEscan (ScanMAX) kinase profiling
Assay type in all cases: binding
panel of 468 kinases [1] = target: T1, panel of 468 kinases (Homo sapiens, UniProt P54764); details: EPHA4; 1 μM; read-out: % control
T1 construct: purchased KINOMEscan (ScanMAX) service

panel of 468 kinases [2] = target: T2, panel of 468 kinases (Homo sapiens, UniProt Q9NY57); details: YANK2; 1 μM; read-out: % control
T2 construct: purchased KINOMEscan (ScanMAX) service

panel of 468 kinases [3] = target: T3, panel of 468 kinases (Homo sapiens, UniProt P00519, F317I); details: 1 μM, read-out: % control
T3 construct: purchased KINOMEscan (ScanMAX) service

panel of 468 kinases [4] = target: T4, panel of 468 kinases (Homo sapiens, UniProt Q96SB4); details: SRPK1; 1 μM; read-out: % control
T4 construct: purchased KINOMEscan (ScanMAX) service

panel of 468 kinases [5] = target: T5, panel of 468 kinases (Homo sapiens, UniProt Q16566); details: CAMK4; 1 μM; read-out: % control
T5 construct: purchased KINOMEscan (ScanMAX) service
T5 sequence (Q16566 1-473): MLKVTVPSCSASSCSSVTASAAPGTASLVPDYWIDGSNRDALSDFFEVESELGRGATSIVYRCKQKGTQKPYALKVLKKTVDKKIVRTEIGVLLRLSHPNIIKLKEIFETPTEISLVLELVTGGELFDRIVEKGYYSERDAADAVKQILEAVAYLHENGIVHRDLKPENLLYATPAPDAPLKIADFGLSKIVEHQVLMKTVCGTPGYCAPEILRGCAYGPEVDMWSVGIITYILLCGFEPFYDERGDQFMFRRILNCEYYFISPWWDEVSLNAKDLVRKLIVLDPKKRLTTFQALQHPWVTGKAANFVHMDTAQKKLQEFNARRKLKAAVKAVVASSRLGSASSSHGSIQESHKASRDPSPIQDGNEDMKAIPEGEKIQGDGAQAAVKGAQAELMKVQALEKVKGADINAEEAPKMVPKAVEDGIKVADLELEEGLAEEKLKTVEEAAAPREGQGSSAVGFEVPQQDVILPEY

panel of 468 kinases [6] = target: T6, panel of 468 kinases (Homo sapiens, UniProt Q06418); details: TYRO3; 1 μM; read-out: % control
T6 construct: purchased KINOMEscan (ScanMAX) service
T6 sequence (Q06418 41-890): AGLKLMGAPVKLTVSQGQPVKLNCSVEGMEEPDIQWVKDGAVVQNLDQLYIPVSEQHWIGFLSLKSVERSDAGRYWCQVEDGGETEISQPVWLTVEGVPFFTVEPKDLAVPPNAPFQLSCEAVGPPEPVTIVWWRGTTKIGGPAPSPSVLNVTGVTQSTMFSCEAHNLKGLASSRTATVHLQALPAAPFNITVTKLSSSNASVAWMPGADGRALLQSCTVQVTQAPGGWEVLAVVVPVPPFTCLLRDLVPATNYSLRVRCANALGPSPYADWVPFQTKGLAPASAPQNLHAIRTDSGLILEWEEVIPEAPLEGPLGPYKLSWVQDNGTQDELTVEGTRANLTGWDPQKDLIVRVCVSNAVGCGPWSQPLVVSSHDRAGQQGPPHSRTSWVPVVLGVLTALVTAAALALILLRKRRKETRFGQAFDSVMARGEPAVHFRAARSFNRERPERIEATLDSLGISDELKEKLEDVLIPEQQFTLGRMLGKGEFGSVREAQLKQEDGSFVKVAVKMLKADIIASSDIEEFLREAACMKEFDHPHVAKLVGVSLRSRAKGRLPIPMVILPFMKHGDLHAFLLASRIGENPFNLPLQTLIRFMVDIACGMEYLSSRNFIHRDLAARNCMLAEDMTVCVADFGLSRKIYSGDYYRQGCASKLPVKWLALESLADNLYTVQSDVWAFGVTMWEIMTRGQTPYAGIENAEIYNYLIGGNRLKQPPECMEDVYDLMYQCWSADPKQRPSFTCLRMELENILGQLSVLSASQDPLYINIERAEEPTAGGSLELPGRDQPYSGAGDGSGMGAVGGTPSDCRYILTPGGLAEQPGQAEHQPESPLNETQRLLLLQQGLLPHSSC

panel of 468 kinases [7] = target: T7, panel of 468 kinases (Homo sapiens, UniProt P53779); details: JNK3; 1 μM; read-out: % control
T7 construct: purchased KINOMEscan (ScanMAX) service

panel of 468 kinases [8] = target: T8, panel of 468 kinases (Homo sapiens, UniProt Q96J92); details: WNK4; 1 μM; read-out: % control
T8 construct: purchased KINOMEscan (ScanMAX) service

panel of 468 kinases [9] = target: T9, panel of 468 kinases (Homo sapiens, UniProt P78368); details: CSNK1G2; 1 μM; read-out: % control
T9 construct: purchased KINOMEscan (ScanMAX) service

panel of 468 kinases [10] = target: T10, panel of 468 kinases (Homo sapiens, UniProt Q9Y243); details: AKT3; 1 μM; read-out: % control
T10 construct: purchased KINOMEscan (ScanMAX) service

T1 sequence (P54764 20-986): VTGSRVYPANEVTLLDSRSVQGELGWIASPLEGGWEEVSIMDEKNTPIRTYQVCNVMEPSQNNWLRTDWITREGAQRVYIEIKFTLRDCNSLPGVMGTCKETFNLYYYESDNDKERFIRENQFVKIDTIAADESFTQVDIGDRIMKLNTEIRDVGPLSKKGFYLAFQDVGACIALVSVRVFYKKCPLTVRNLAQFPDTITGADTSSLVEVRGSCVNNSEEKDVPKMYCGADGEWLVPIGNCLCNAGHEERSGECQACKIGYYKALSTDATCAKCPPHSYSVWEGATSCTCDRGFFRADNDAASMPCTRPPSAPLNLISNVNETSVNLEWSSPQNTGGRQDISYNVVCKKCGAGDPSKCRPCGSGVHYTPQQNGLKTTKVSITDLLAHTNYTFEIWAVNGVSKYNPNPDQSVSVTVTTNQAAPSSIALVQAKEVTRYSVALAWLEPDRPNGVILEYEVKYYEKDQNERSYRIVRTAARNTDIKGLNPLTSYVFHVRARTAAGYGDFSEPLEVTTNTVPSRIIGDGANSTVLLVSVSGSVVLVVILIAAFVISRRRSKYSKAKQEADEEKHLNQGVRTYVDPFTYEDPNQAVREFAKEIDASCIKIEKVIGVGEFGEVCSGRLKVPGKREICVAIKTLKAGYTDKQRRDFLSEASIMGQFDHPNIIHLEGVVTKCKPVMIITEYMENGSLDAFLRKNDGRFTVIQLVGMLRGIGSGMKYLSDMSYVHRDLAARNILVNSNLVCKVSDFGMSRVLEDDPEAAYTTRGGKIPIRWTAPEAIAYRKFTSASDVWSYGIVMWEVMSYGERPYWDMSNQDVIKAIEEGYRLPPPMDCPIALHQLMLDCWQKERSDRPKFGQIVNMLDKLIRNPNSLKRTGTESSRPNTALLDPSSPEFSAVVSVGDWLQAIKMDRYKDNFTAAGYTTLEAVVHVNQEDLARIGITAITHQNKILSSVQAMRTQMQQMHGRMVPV
T7 sequence (P53779 whole entry): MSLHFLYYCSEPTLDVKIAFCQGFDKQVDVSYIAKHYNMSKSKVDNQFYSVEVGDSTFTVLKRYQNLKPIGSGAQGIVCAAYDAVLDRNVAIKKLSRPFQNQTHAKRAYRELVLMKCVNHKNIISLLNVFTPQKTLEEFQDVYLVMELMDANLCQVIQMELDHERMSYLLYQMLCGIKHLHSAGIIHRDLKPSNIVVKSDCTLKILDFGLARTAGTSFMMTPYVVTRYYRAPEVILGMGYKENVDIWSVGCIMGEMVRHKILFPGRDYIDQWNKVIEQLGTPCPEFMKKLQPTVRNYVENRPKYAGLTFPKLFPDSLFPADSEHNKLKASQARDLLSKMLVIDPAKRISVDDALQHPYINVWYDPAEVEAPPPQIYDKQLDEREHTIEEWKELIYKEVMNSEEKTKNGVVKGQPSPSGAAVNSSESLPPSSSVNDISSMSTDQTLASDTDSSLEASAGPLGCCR
T9 sequence (P78368 whole entry): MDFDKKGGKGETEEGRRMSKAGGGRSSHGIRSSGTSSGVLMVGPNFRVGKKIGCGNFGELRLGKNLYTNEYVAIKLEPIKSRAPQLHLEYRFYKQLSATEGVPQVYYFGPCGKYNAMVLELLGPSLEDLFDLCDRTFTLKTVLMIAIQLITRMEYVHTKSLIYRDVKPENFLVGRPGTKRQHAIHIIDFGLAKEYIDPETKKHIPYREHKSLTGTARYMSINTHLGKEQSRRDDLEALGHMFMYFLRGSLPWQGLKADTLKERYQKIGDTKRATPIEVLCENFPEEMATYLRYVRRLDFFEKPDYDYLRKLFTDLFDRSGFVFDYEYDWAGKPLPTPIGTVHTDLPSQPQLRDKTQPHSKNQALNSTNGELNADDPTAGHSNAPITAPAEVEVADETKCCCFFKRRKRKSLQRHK
T2 sequence (Q9NY57 whole entry): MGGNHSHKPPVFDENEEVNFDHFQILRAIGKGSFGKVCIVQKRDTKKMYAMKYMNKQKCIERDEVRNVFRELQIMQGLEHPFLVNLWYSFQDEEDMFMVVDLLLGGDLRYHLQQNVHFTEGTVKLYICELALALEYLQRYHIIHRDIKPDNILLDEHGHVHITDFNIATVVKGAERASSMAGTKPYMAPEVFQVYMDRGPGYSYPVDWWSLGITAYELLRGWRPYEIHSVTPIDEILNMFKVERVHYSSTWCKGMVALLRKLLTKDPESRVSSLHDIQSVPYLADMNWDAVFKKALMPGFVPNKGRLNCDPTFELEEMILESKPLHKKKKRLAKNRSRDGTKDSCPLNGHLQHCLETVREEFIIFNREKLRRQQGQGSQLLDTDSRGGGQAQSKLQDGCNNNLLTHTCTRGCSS
T8 sequence (Q96J92 whole entry): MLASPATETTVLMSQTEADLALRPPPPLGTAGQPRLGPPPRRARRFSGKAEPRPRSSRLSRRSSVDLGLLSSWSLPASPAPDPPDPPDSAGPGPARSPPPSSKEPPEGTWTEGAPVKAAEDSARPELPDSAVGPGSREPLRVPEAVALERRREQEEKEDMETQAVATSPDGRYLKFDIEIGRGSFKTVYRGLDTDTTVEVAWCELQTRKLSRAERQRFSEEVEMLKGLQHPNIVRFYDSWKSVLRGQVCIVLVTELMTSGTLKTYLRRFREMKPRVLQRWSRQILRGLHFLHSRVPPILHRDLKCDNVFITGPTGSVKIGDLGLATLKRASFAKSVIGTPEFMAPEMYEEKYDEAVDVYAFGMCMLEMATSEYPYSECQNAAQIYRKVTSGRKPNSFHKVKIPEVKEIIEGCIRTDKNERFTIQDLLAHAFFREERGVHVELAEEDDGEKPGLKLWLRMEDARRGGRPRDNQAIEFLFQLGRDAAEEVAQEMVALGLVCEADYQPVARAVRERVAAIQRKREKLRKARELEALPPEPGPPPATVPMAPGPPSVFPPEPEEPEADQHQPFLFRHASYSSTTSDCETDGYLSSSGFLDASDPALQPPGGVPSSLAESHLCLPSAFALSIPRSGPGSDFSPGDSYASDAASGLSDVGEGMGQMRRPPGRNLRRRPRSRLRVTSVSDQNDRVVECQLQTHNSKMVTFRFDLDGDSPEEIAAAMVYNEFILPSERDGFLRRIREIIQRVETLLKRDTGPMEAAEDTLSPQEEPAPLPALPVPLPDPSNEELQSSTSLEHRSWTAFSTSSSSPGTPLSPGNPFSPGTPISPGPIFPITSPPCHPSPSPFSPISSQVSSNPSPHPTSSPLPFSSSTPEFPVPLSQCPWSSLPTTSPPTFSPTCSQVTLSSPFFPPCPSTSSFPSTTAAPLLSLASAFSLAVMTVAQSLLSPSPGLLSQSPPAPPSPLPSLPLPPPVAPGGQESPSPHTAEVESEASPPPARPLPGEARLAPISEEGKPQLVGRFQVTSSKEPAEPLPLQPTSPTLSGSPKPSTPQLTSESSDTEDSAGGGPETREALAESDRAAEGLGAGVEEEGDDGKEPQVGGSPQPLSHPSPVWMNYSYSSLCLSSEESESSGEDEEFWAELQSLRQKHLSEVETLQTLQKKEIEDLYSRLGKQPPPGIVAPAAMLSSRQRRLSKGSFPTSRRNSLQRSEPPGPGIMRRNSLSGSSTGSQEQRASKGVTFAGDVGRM
T3 sequence (P00519 whole entry F317I): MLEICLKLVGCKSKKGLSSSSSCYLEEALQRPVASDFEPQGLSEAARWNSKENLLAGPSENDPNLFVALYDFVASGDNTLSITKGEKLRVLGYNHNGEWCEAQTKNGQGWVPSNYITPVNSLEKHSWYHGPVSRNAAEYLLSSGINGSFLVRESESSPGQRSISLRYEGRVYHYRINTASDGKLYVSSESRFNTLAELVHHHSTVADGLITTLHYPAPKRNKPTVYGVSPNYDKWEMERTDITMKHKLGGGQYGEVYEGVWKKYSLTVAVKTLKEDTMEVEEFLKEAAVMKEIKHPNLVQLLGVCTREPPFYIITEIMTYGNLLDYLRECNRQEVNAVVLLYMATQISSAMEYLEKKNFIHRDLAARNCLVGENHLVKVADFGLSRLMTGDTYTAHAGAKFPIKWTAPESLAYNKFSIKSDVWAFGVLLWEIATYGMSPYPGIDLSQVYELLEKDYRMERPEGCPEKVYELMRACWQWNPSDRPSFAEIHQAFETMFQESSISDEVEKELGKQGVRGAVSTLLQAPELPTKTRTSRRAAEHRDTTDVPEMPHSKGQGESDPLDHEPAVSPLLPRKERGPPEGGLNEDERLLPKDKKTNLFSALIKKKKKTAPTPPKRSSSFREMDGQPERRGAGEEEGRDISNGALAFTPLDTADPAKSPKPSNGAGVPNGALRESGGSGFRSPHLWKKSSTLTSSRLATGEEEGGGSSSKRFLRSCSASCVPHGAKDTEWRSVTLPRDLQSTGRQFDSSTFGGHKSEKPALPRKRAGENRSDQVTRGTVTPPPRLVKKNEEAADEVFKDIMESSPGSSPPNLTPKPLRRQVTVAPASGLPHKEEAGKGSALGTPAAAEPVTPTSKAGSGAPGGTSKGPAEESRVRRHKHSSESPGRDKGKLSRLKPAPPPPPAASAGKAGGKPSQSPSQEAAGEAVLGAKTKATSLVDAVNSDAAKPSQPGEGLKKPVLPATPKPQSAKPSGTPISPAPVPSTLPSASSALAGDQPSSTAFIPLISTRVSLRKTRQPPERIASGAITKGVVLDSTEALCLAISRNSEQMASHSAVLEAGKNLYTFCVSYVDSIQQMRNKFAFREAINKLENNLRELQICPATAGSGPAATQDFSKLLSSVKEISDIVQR

Compound | remaining binding at 1 µM (panel of 468 kinases [1]) | remaining binding at 1 µM (panel of 468 kinases [2]) | remaining binding at 1 µM (panel of 468 kinases [3]; ABL1(F317I)-nonphosphorylated) | remaining binding at 1 µM (panel of 468 kinases [3]; ABL1(F317I)-phosphorylated) | remaining binding at 1 µM (panel of 468 kinases [4]) | remaining binding at 1 µM (panel of 468 kinases [5]) | remaining binding at 1 µM (panel of 468 kinases [6]) | remaining binding at 1 µM (panel of 468 kinases [7]) | remaining binding at 1 µM (panel of 468 kinases [8]) | remaining binding at 1 µM (panel of 468 kinases [9]) | remaining binding at 1 µM (panel of 468 kinases [10])
CNc1nc(Nc2ccc(C(=O)N3CCC(N4CCOCC4)CC3)c3c2OCO3)nc2[nH]cc(Cl)c12 [Compound 75, (7-((5-chloro-4-(methylamino)-7H-pyrrolo[2,3-d]pyrimidin-2-yl)amino)benzo[d][1,3]dioxol-4-yl)(4-morpholinopiperidin-1-yl)methanone] | 92% | 100% | 100% | 83% | 53% | 100% | 100% | 0.25% | 66% | 2.9% | 100%
CNc1nc(Nc2ccc(S(=O)(=O)N3CCC(N4CCOCC4)CC3)cc2OC)nc2[nH]cc(Cl)c12 [Compound 12, 5-chloro-N2-(2-methoxy-4-((4-morpholinopiperidin-1-yl)sulfonyl)phenyl)-N4-methyl-7H-pyrrolo[2,3-d]pyrimidine-2,4-diamine] | 86% | 96% | 100% | 54% | 96% | 100% | 100% | 16% | 61% | 63% | 100%
CNc1nc(Nc2ccc(P3(=O)CCN(C4CCOCC4)CC3)cc2OC)nc2[nH]cc(Cl)c12 [Compound 77, 4-(4-((5-chloro-4-(methylamino)-7H-pyrrolo[2,3-d]pyrimidin-2-yl)amino)-3-methoxyphenyl)-1-(tetrahydro-2H-pyran-4-yl)-1,4-azaphosphinane 4-oxide] | 79% | 100% | 100% | 51% | 96% | 100% | 100% | 0.9% | 66% | 96% | 100%
